Columns and labels:
Trypanosoma cruzi = test: In vitro anti protozoal activity against Trypanosoma cruzi strain Tulahuen CL2 was determined; type: functional, organism-based
Leishmania infantum = test: In vitro anti protozoal activity against Leishmania infantum strain MHOM-ET-67/L82 was determined; type: functional, organism-based
Plasmodium falciparum [1] = test: In vitro anti-protozoal activity against Plasmodium falciparum Ghana strain; type: functional, organism-based
Trypanosoma brucei = test: In vitro anti protozoal activity against Trypanosoma brucei strain S427 was determined; type: functional, organism-based
Homo sapiens = species: Homo sapiens; test: Cytotoxicity in macrophages; type: functional
MRC5 = test: Cytotoxicity in MRC-5 cells; type: functional, cell-based; settings: Homo sapiens
[2] = tested on: Human T-cell leukemia virus type I; test: Inhibitory activity against proliferation of HTLV-1 transformed cell lines (HUT-102) at 10 uM; type: functional; settings: Primate T-lymphotropic virus 1, HuT-102
Plasmodium falciparum [3] = test: In vitro anti-protozoal activity against Plasmodium falciparum W2; type: functional, organism-based
Leishmania amazonensis = test: In vitro anti protozoal activity against Leishmania amazonensis strain MHOM/ET/L82/LV9 was determined; type: functional, organism-based

IC50 (Trypanosoma cruzi)	IC50 (Leishmania infantum; Leishmania infantum)	IC50 (Plasmodium falciparum [1])	IC50 (Trypanosoma brucei)	IC50 (Plasmodium falciparum [3])	IC50 (Leishmania amazonensis)	Compound	IC50 (Homo sapiens)	IC50 (MRC5)	inhibition at 10 µM [2]	IC50 (Leishmania infantum)
> 32 µM	> 32 µM	> 32 µM	> 32 µM	> 32 µM	> 32 µM	COc1ccc(C(O)Cc2ccc3ccccc3n2)cc1OC (centres undefined)	> 32 µM	> 32 µM	0%	–
–	–	–	–	–	3.12 µM	CCCCCCCCCCCCCCCCOP(=O)([O-])OCC[N+](C)(C)C [MILTEFOSINE]	12.5 µM	–	–	–
13 µM	18 µM	12 µM	> 32 µM	16 µM	> 32 µM	O=C(/C=C/c1ccc2ccccc2n1)N1CCOCC1	> 32 µM	> 32 µM	0%	–
0.15 µM	2 µM	> 32 µM	1 µM	–	3 µM	Br/C=C/c1ccc2ccccc2n1	13 µM	> 32 µM	–	–
22 µM	> 32 µM	> 32 µM	> 32 µM	> 32 µM	> 32 µM	Fc1ccc(/C=C/c2ccc3ccccc3n2)cc1	> 32 µM	> 32 µM	26%	–
> 32 µM	> 32 µM	> 32 µM	> 32 µM	> 32 µM	> 32 µM	CN(C)c1ccc(C(O)Cc2ccc3ccccc3n2)cc1 (centres undefined)	> 32 µM	> 32 µM	0%	–
5 µM	2 µM	31 µM	19 µM	–	4 µM	O=C/C=C/c1ccc2ccccc2n1	9 µM	16 µM	34%	–
> 32 µM	> 32 µM	> 32 µM	> 32 µM	> 32 µM	> 32 µM	CN1CCN(C(=O)/C=C/c2ccc3ccccc3n2)CC1	> 32 µM	> 32 µM	0%	–
> 32 µM	22 µM	> 32 µM	26 µM	> 32 µM	> 32 µM	COc1ccc(/C=C/c2ccc3ccccc3n2)cc1OC	> 32 µM	> 32 µM	0%	–
> 32 µM	> 32 µM	> 32 µM	> 32 µM	> 32 µM	> 32 µM	OC(Cc1ccc2ccccc2n1)c1ccco1 (centres undefined)	> 32 µM	> 32 µM	0%	–
–	–	–	–	–	–	MEGLUMINE ANTIMONATE	–	–	–	7.15 µM
> 32 µM	> 32 µM	4 µM	> 32 µM	1 µM	> 32 µM	OC(Cc1ccc2ccccc2n1)c1ccc(F)cc1 (centres undefined)	> 32 µM	> 32 µM	0%	–
> 32 µM	> 32 µM	> 32 µM	> 32 µM	> 32 µM	> 32 µM	COc1cc(NCc2ccc3ccccc3n2)cc(OC)c1OC	> 32 µM	> 32 µM	0%	–
28 µM	> 32 µM	> 32 µM	> 32 µM	> 32 µM	> 32 µM	O=[N+]([O-])c1ccc(/C=C/c2ccc3ccccc3n2)cc1	> 32 µM	> 32 µM	0%	–
17 µM	> 32 µM	> 32 µM	6 µM	> 32 µM	16 µM	CN(C)c1ccc(/C=C/c2ccc3ccccc3n2)cc1	16 µM	> 32 µM	26%	–
> 32 µM	> 32 µM	> 32 µM	18 µM	30 µM	> 32 µM	COc1ccc(/C=C/c2ccc3ccccc3n2)c(OC)c1	> 32 µM	> 32 µM	0%	–
0.45 µM	–	–	–	–	–	CC1CS(=O)(=O)CCN1/N=C/c1ccc([N+](=O)[O-])o1 (centres undefined) [NIFURTIMOX]	–	–	–	–
17 µM	16 µM	15 µM	> 32 µM	17 µM	18 µM	O=C(/C=C/c1ccc2ccccc2n1)N1CCCCC1	> 32 µM	> 32 µM	0%	–
–	–	–	0.09 µM	–	–	Cc1ccc(C(=O)Nc2ccc(S(=O)(=O)O)c3cc(S(=O)(=O)O)cc(S(=O)(=O)O)c23)cc1NC(=O)c1cccc(NC(=O)Nc2cccc(C(=O)Nc3cc(C(=O)Nc4ccc(S(=O)(=O)O)c5cc(S(=O)(=O)O)cc(S(=O)(=O)O)c45)ccc3C)c2)c1 [SURAMIN]	–	–	–	–
> 32 µM	> 32 µM	> 32 µM	> 32 µM	> 32 µM	> 32 µM	Fc1ccccc1NCc1ccc2ccccc2n1	> 32 µM	> 32 µM	0%	–
1 µM	> 8 µM	16 µM	18 µM	14 µM	> 32 µM	O=[N+]([O-])/C=C/c1ccc2ccccc2n1	> 32 µM	22 µM	76%	–
> 32 µM	> 32 µM	15 µM	> 32 µM	6 µM	> 32 µM	O=[N+]([O-])c1ccc(C(O)Cc2ccc3ccccc3n2)cc1 (centres undefined)	> 32 µM	> 32 µM	10%	–

From ChEMBL document CHEMBL1149205, “Biological evaluation of substituted quinolines” (Bioorg Med Chem Lett, 2004)
